The text below walks through data of patent US20220151962A1, “NOVEL INHIBITORS OF HISTONE DEACETYLASE 10” (Deutsches Krebsforschungszentrum, priority 2019, published 2022).

In one series the target is T1, HDAC1 (Homo sapiens, UniProt Q13547).
T1 construct: purchased BPS Bioscience 50051
In words: HDAC-Glo I/II assay, HDAC1. The format is biochemical. The following applies: recombinant human HDAC1, HDAC-Glo; read-out: pIC50 HDAC1 Glo (converted).

Another series concerns the target T2, HDAC2 (Homo sapiens, UniProt Q92769).
T2 construct: purchased BPS Bioscience 50002
Briefly: HDAC-Glo I/II assay, HDAC2. The following applies: recombinant human HDAC2, HDAC-Glo; read-out: pIC50 HDAC2 Glo (converted). The format is biochemical.

The target of a further series is T3, HDAC3/NcoR2 complex (Homo sapiens, UniProt O15379).
T3 construct: purchased BPS Bioscience 50003
Briefly: HDAC-Glo I/II assay, HDAC3/NcoR2 complex. The format is biochemical. The following applies: recombinant human HDAC3/NcoR2 complex, read-out: pIC50 HDAC3 Glo (converted).

The target in the next series is T4, HDAC6 (Homo sapiens, UniProt Q9UBN7).
T4 construct: purchased BPS Bioscience 50006
T4 sequence (Q9UBN7 1-1215): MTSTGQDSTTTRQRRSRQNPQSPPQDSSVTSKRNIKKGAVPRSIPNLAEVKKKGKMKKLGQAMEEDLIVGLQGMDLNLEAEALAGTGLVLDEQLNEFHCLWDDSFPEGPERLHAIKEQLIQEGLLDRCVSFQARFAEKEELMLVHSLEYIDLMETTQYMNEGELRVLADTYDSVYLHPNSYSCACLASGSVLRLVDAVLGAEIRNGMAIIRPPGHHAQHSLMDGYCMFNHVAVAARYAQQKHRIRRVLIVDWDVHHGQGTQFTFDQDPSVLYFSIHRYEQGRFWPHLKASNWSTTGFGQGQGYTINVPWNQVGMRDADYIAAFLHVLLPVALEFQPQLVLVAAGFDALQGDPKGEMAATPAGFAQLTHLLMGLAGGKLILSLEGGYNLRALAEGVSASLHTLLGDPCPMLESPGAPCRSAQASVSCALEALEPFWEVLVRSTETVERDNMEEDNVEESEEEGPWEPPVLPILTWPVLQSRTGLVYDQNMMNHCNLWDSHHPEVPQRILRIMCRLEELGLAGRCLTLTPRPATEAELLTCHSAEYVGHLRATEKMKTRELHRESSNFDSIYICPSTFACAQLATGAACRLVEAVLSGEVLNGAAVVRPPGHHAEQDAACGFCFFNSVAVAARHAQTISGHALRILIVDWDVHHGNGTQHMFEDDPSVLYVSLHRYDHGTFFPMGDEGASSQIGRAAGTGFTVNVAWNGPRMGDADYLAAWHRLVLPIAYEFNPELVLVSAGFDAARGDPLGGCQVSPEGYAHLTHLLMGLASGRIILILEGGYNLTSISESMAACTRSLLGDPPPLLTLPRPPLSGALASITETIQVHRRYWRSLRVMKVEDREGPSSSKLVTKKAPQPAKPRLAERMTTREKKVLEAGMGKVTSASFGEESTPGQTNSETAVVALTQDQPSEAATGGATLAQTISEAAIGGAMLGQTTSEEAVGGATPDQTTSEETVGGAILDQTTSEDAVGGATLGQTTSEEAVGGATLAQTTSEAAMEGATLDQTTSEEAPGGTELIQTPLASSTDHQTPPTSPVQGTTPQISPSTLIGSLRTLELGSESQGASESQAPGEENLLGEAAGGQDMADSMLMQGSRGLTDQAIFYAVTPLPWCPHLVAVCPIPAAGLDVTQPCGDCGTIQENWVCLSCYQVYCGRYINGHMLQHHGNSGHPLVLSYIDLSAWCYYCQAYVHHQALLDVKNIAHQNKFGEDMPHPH
In words: HDAC-Glo I/II assay, HDAC6. The format is biochemical. The note with it: recombinant human HDAC6, HDAC-Glo; read-out: pIC50 HDAC6 Glo (converted).

For the next series, the target named is T5, TwinStrep-GST-HDAC10 (Homo sapiens, UniProt Q969S8).
T5 construct: made in house; host or cells: Sf21 insect cells (baculovirus, pFastBac1)
T5 sequence (Q969S8 1-669): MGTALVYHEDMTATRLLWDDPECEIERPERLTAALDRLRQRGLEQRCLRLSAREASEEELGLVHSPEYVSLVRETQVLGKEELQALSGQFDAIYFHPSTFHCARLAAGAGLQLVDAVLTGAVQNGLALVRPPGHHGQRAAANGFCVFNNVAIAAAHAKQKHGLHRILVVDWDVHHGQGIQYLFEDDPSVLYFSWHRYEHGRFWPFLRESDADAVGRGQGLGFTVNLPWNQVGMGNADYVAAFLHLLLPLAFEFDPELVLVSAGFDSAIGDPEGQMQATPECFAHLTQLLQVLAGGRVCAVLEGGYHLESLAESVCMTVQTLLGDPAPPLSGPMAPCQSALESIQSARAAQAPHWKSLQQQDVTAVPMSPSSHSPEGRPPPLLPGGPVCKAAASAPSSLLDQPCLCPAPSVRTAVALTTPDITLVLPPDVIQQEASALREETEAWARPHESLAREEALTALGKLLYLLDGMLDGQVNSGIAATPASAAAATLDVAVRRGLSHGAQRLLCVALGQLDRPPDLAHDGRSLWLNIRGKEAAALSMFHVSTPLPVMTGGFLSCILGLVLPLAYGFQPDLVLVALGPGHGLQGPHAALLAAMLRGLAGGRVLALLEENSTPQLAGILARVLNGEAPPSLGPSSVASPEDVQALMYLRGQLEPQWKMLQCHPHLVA
In words: HDAC10 TR-FRET assay (Tubastatin-AF647-Tracer displacement). The note with it: TR-FRET, 60 min at rt; read-out: pIC50 HDAC10 FRET (converted). The format is binding. Background: In TR-FRET formats the signal depends on donor and acceptor labels being close together.

Series [1] is described as follows: Solubility in water (observation during purification). The format is physicochemical.
The target in the next series is T6, HDAC8 (Homo sapiens, UniProt Q9BY41).
T6 sequence (Q9BY41 1-377): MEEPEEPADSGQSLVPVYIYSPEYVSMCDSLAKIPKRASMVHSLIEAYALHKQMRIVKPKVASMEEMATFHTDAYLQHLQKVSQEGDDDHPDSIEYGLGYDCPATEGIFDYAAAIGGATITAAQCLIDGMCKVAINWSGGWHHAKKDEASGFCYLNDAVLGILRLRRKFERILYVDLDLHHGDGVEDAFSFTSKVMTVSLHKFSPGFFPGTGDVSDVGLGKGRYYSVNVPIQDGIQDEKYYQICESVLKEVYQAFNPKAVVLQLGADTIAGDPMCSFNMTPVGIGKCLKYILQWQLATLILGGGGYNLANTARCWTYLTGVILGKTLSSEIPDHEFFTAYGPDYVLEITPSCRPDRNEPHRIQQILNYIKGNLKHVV
Briefly: HDAC-Glo I/II assay, HDAC8. Also on record: purchased BPS Bioscience 50008. The following applies: recombinant human HDAC8, HDAC-Glo; read-out: pIC50 HDAC8 Glo (converted). The format is biochemical.

For series [2], the target named is T7, HDAC6 (2nd catalytic domain)-nanoluciferase fusion in HeLa cells (Homo sapiens, UniProt Q9UBN7).
T7 sequence (Q9UBN7 482-800 limits assumed): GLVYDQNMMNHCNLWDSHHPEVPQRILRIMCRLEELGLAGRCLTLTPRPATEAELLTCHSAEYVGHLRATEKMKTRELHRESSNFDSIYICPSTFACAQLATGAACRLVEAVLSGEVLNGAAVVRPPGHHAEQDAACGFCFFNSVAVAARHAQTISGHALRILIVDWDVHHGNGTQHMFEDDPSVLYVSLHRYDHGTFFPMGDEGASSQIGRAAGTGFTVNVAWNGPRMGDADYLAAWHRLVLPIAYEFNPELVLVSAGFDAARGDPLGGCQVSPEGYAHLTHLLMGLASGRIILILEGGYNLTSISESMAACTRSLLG
Briefly: BRET intracellular target engagement assay, HDAC6. (In general: BRET reads energy transfer from a luciferase to a nearby fluorophore.)

In series [3] the target is T8, HDAC10-nanoluciferase fusion in HeLa cells (Homo sapiens, UniProt Q969S8).
T8 sequence (Q969S8 1-669): T5 sequence (Q969S8 1-669)
In words: BRET intracellular target engagement assay, HDAC10. The following applies: for HDAC10/6 fold selectivity (BRET): HDAC10 over HDAC6, from BRET.

A short description of series [4]: Stability on exposure to air (observation). The format is physicochemical. The note with it: especially in solution.

The structures appear in SMILES notation.

T1 sequence (Q13547 whole entry): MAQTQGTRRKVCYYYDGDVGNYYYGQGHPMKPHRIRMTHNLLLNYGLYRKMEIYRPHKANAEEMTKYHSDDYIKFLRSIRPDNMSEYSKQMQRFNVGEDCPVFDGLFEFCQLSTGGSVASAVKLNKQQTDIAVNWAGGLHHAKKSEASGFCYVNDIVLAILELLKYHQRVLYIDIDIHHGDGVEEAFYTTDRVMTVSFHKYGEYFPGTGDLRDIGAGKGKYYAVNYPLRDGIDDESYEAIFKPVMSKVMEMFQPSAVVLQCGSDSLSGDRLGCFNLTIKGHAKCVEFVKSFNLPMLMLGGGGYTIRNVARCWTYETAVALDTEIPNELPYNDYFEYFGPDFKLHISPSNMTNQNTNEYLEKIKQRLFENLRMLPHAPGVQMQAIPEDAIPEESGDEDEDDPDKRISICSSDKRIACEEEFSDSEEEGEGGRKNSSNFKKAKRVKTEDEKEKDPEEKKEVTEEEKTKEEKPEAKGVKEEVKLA
T2 sequence (Q92769 whole entry): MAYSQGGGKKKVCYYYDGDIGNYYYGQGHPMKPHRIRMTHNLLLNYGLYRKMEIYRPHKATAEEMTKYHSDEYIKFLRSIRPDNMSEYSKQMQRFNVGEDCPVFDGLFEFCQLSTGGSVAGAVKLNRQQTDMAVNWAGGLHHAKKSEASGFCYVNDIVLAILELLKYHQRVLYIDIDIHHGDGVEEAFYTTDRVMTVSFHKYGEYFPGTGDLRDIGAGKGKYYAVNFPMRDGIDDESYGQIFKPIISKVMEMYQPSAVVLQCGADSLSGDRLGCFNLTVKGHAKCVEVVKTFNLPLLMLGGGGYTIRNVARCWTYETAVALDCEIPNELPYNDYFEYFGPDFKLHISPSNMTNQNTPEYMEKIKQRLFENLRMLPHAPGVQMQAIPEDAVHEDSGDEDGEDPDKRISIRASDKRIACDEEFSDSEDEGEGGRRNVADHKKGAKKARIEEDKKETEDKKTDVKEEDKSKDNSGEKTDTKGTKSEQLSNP
T3 sequence (O15379 whole entry): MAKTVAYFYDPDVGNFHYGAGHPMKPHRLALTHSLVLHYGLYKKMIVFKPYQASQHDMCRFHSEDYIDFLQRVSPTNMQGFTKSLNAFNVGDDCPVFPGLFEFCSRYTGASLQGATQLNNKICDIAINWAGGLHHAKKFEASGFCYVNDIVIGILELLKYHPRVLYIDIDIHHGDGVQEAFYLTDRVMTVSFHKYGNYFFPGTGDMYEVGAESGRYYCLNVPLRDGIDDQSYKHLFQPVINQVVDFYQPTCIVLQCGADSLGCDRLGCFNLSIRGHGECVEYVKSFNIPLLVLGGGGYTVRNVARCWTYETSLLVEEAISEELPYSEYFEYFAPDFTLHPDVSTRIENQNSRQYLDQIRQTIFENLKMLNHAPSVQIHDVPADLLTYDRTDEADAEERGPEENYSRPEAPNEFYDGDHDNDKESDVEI
T3 sequence (Q9Y618 395-489 partner limits assumed): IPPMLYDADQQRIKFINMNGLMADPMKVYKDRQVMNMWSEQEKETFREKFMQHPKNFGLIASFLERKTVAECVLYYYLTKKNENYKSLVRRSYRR

On to `C[N+](C)(CCCC(=O)[N-]O)CCNC(=O)c1ccccc1` [DKFZ-777, (4-((2-Benzamidoethyl)dimethylammonio)butanoyl)(hydroxy)amide], for which the IC50 on HDAC1 is over 100 µM; on HDAC2, over 100 µM; at HDAC3/NcoR2 complex, over 100 µM; on HDAC6, over 100 µM; on TwinStrep-GST-HDAC10 it was 0.398 µM; on HDAC8, over 100 µM. Also, the IC50 in series [2] is over 39.8 µM; in series [3], 31.6 µM. The solubility in water entry in [1] was “poorly soluble in water”. Besides, the “HDAC10/6 fold selectivity (BRET)” value in [3] is over 1 fold.
In the case of `CN(CCNC(=O)CS)CCNC(=O)c1ccccc1` [DKFZ-825, N-(2-((2-(2-Mercaptoacetamido)ethyl)(methyl)amino)ethyl)benzamide], the IC50 on HDAC1 is 12.6 µM; at HDAC2, 12.6 µM; on HDAC3/NcoR2 complex, over 100 µM; on HDAC6, 3.98 µM; at TwinStrep-GST-HDAC10 it was 0.0126 µM; on HDAC8, over 100 µM. In series [4], the “stability when exposed to air” value is listed as “form the disulfide when exposed to air”.
Consider `O=C(CCCN(CCC(=O)Nc1ccccc1)Cc1ccccc1)NO` [DKFZ-718, 4-(Benzyl(3-oxo-3-(phenylamino)propyl)amino)-N-hydroxybutanamide], for which the IC50 was 25.1 µM at HDAC1; about 126 µM on HDAC2; about 100 µM on HDAC3/NcoR2 complex; 1 µM on HDAC6; 2 µM on TwinStrep-GST-HDAC10; 2.51 µM on HDAC8. The IC50 was 10 µM in [2] and 0.501 µM in series [3]. For the same molecule, the “HDAC10/6 fold selectivity (BRET)” value in series [3] is 25 fold.
As to `COc1ccc(C(=O)NCCN(C)CCCC(=O)NO)c2ccccc12` [DKFZ-774, N-(2-((4-(Hydroxyamino)-4-oxobutyl)(methyl)amino)ethyl)-4-methoxy-1-naphthamide], the IC50 on HDAC1 was 6.31 µM; at HDAC2, 12.6 µM; on HDAC3/NcoR2 complex, over 100 µM; on HDAC6 it was 2.51 µM; at TwinStrep-GST-HDAC10, 0.00316 µM; at HDAC8 it was 1.26 µM. In addition, the figures for the IC50 in series [2] and in [3] were about 12.6 µM and 0.0316 µM, respectively. The “HDAC10/6 fold selectivity (BRET)” value in series [3] worked out at 398 fold.
